Experimental data taken from ChEMBL document CHEMBL3232804, “Synthesis and evaluation of new diaryl ether and quinoline hybrids as potential antiplasmodial and antimicrobial agents” (Bioorg Med Chem Lett, 2014).
Values after ≈ are worked out from the molar mass of the structure shown.

What was measured:
Staphylococcus aureus = test: Antimicrobial activity against Staphylococcus aureus ATCC 25923 after 24 hrs by standard broth microdilution method; assay type: functional
[1] = test system: Trichophyton mentagrophytes; test: Antifungal activity against Trichophyton mentagrophytes clinical isolate after 72 to 96 hrs by standard broth microdilution method; assay type: functional
Candida albicans = test: Antifungal activity against Candida albicans clinical isolate after 24 to 48 hrs by standard broth microdilution method; assay type: functional
Aspergillus fumigatus = test: Antifungal activity against Aspergillus fumigatus clinical isolate after 72 to 96 hrs by standard broth microdilution method; assay type: functional
Plasmodium falciparum [2] = test: Antiplasmodial activity against chloroquine-resistant Plasmodium falciparum K1 infected after 72 hrs by Malaria SYBR Green I-staining based fluorescence assay; assay type: functional, organism-based; conditions: K1, 72 h
Escherichia coli = test: Antimicrobial activity against Escherichia coli ATCC 9637 after 24 hrs by standard broth microdilution method; assay type: functional
Plasmodium falciparum [3] = test: Antiplasmodial activity against chloroquine-sensitive Plasmodium falciparum 3D7 infected after 72 hrs by Malaria SYBR Green I-staining based fluorescence assay; assay type: functional, organism-based; conditions: 3D7, 72 h
Klebsiella pneumoniae = test: Antimicrobial activity against Klebsiella pneumoniae ATCC 27736 after 24 hrs by standard broth microdilution method; assay type: functional
Pseudomonas aeruginosa = test: Antimicrobial activity against Pseudomonas aeruginosa ATCC BAA-427 after 24 hrs by standard broth microdilution method; assay type: functional
Cryptococcus neoformans = test: Antifungal activity against Cryptococcus neoformans clinical isolate after 24 to 48 hrs by standard broth microdilution method; assay type: functional
Sporothrix schenckii = test: Antifungal activity against Sporothrix schenckii clinical isolate after 72 to 96 hrs by standard broth microdilution method; assay type: functional
Candida parapsilosis = test: Antifungal activity against Candida parapsilosis ATCC […] after 72 to 96 hrs by standard broth microdilution method; assay type: functional; conditions: Lodderomyces parapsilosis
[4] = Selectivity index, ratio of IC50 for african green monkey Vero cells to IC50 for chloroquine-sensitive Plasmodium falciparum 3D7; assay type: toxicity, cell-based; conditions: read-out: Ratio IC50

Row | MIC (Staphylococcus aureus) [µg/mL] | MIC (Escherichia coli) [µg/mL] | MIC (Klebsiella pneumoniae) [µg/mL] | MIC (Pseudomonas aeruginosa) [µg/mL] | Molecule | MIC (Staphylococcus aureus; ATCC 25923, 24 h) [µg/mL] | MIC [1] [µg/mL] | MIC (Candida albicans) [µg/mL] | MIC (Aspergillus fumigatus) [µg/mL] | IC50 (Plasmodium falciparum [2]) [nM] | MIC (Escherichia coli; ATCC 9637, 24 h) [µg/mL] | IC50 (Plasmodium falciparum [3]) [nM] | MIC (Klebsiella pneumoniae; ATCC 27736, 24 h) [µg/mL] | MIC (Pseudomonas aeruginosa; ATCC BAA-427, 24 h) [µg/mL] | MIC (Cryptococcus neoformans) [µg/mL] | MIC (Sporothrix schenckii) [µg/mL] | MIC (Candida parapsilosis) [µg/mL] | selectivity ratio [4]
1 | – | – | – | – | COc1ccc(Oc2ccccc2N/C(=N/c2ccccc2)NCCCCNc2ccnc3cc(Cl)ccc23)cc1 | > 50 | > 50 | > 50 | 50 (≈ 88.3 µM) | > 1000 | > 50 | 109 | > 50 | > 50 | > 50 | 50 (≈ 88.3 µM) | > 50 | –
2 | 1.56 | 1.56 | 1.56 | 0.39 | GENTAMICIN SULFATE | – | – | – | – | – | – | – | – | – | – | – | – | –
3 | – | – | – | – | COc1ccc(Oc2ccccc2N/C(=N/c2ccccc2)NCCCNc2ccnc3cc(Cl)ccc23)cc1 | 50 (≈ 90.6 µM) | > 50 | 50 (≈ 90.6 µM) | 50 (≈ 90.6 µM) | – | 50 (≈ 90.6 µM) | 120 | > 50 | > 50 | > 50 | 50 (≈ 90.6 µM) | 50 (≈ 90.6 µM) | –
4 | – | – | – | – | COc1ccc(Oc2ccc(N/C(=N/c3ccccc3)NCCNc3ccnc4cc(Cl)ccc34)cc2)cc1 | 6.25 (≈ 11.6 µM) | 12.5 (≈ 23.2 µM) | 25 (≈ 46.5 µM) | 25 (≈ 46.5 µM) | 635 | 6.25 (≈ 11.6 µM) | > 900 | 12.5 (≈ 23.2 µM) | > 50 | 50 (≈ 92.9 µM) | 12.5 (≈ 23.2 µM) | 25 (≈ 46.5 µM) | –
5 | – | – | – | – | CCn1cc(C(=O)O)c(=O)c2cc(F)c(N3CCNCC3)cc21 [NORFLOXACIN] | 0.78 (≈ 2.44 µM) | – | – | – | – | 0.36 (≈ 1.13 µM) | – | 0.36 (≈ 1.13 µM) | 0.3 (≈ 0.939 µM) | – | – | – | –
6 | – | – | – | – | COc1ccc(Oc2ccccc2N/C(=N/c2ccc(Cl)cc2)NCCNc2ccnc3cc(Cl)ccc23)cc1 | 12.5 (≈ 21.8 µM) | – | 50 (≈ 87.3 µM) | – | 329 | 50 (≈ 87.3 µM) | 103 | > 50 | > 50 | 25 (≈ 43.7 µM) | 12.5 (≈ 21.8 µM) | – | 172
7 | – | – | – | – | COc1ccc(Oc2ccccc2N/C(=N/c2ccc(Cl)cc2)NCCCNc2ccnc3cc(Cl)ccc23)cc1 | > 50 | – | > 50 | – | > 800 | > 50 | 241 | 50 (≈ 85.2 µM) | 50 (≈ 85.2 µM) | 50 (≈ 85.2 µM) | 25 (≈ 42.6 µM) | – | 123
